For data set [1], the system named is plasma testosterone. Description: Suppression of plasma testosterone in rats after i.m. injection. Type of data set: in vivo. The following applies: 300 μg/kg i.m. An excerpt:
The effect of an LHRH antagonist peptide of Example 1 of the present invention was compared to the effect of "Antide", cf. A. Ljungqvist et al., Biochem. Biophys. Res. Comm., 148, 849-858 (1987)., an LHRH antagonist of the prior art. Both LHRH antagonists were intermuscularly injected into 6 rats at a dosage of 300 mcg/kg.

For data set [2], the system named is rats. Description: Test for anaphylactoid properties in rats. The format is in vivo. The following applies: six rats, injected with 5 mg/kg, observed over a 24 hour period. The procedure: Six rats were utilized to test the LHRH antagonist peptide of Example 1 of the present invention for anaphylactoid properties. Each of the six rats was injected with 5 mg/kg of the test peptide.

Data set [3] is classed as physicochemical. The source says: An aqueous solution of the peptide of Example 1 was mixed with an aqueous solution of sodium pamoate.

Non-standard residues stand in square brackets, D forms with d. *: point of attachment. dPhe(4-Cl) = N[C@H](Cc1ccc(Cl)cc1)C(=O)O; d2Nal = N[C@H](Cc1ccc2ccccc2c1)C(=O)O; d3Pal = N[C@H](Cc1cccnc1)C(=O)O; Carbamoyl = NC(=O)*; iPr = CC(C)*

We go through three substances from US5516887A, “Luteinizing hormone releasing hormone antagonist peptides” (Deghenghi; Romano, priority 1994, dated 1996).

Antide [reference compound]: the “plasma testosterone, 0 hr” value in data set [1] was found to be 3.35 ± 2.51. Also, the “plasma testosterone, 24 hr” value in data set [1] (24 hr) worked out at 0.78 ± 0.37. In data set [1] (48 hr), the “plasma testosterone, 48 hr” value came to 1.96 ± 0.95.
On to “Example 1: LHRH antagonist peptide SEQ ID NO.: 1: N-acetyl-D-3-(2-naphthyl)-Ala1, D-3-(4-chlorophenyl)-alanine2, D-3(3-pyridyl)-Ala3, D-6-carbamoyl lysine6, Nε-isopropyl-Lys8, D-Ala-NH2 at 10 (Ac-[d2Nal][dPhe(4-Cl)][d3Pal]SY[dK](Carbamoyl)LK(iPr)P[dA]-NH2)”, for which, in data set [1], the “plasma testosterone, 0 hr” value is 5.46 ± 3.32. In data set [1] (24 hr), the “effectiveness relative to Antide at 24 hour suppression of plasma testosterone” value was “more than about ten times as effective as Antide” and the “plasma testosterone, 24 hr” value is on record as 0.067 ± 0.030. For the same substance, in data set [1] (48 hr), the “effectiveness relative to Antide at 48 hours, suppression of plasma testosterone” value is recorded as “more than twice as effective as Antide” and the “plasma testosterone, 48 hr” value is reported as 0.84 ± 0.28. For the same substance, in data set [2], the “mortality or other signs of anaphylactoid reactions” value is given as “No mortality or other signs of anaphylactoid reactions were observed”. For the same substance, in data set [3], the solubility in water entry is on record as “freely soluble in water”.
For the substance “Example 2: LHRH antagonist peptide SEQ ID NO.: 2: as SEQ ID NO.: 1 at positions 1, 2, 3, 6, 8; position 9 is Pro-NHCH2 CH3 (Ac-[d2Nal][dPhe(4-Cl)][d3Pal]SY[dK](Carbamoyl)LK(iPr)P-NHEt; SMILES CCNC(=O)[C@@H]1CCCN1C(=O)[C@H](CCCCNC(C)C)NC(=O)[C@H](CC(C)C)NC(=O)[C@@H](CCCCNC(N)=O)NC(=O)[C@H](Cc1ccc(O)cc1)NC(=O)[C@H](CO)NC(=O)[C@@H](Cc1cccnc1)NC(=O)[C@@H](Cc1ccc(Cl)cc1)NC(=O)[C@@H](Cc1ccc2ccccc2c1)NC(C)=O)”, the solubility in water result in data set [3] is listed as “water soluble”.
